In PMC11018852, “Scutellarin activates IDH1 to exert antitumor effects in hepatocellular carcinoma progression” (Cell Death & Disease, 2024):
pKd: −log10 of the molar value.

Molecular target: T1, IDH1 (Homo sapiens, UniProt O75874)
T1 construct: residues 1–414
Test: biolayer interferometry on recombinant IDH1 (repeat Kd […]); supported by DSF, CETSA, LC-MS/MS adduct at Cys297, enzyme activation EC50 […]
Assay type: binding

T1 sequence (O75874 whole entry, the tested form may be a part): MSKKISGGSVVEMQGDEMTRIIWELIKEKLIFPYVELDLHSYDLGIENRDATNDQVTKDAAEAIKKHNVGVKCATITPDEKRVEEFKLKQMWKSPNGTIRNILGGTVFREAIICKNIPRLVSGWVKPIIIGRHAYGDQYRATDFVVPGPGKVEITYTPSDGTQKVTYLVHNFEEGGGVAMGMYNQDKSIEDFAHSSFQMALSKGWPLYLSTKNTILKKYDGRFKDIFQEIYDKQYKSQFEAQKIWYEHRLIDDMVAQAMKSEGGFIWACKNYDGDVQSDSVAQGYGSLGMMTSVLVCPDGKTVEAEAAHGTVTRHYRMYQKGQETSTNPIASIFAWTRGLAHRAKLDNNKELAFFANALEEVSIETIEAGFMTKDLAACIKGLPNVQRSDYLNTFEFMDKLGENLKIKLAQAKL

O=C(O)[C@H]1O[C@@H](Oc2cc3oc(-c4ccc(O)cc4)cc(=O)c3c(O)c2O)[C@H](O)[C@@H](O)[C@@H]1O [Scu, scutellarin]
pKd: 4.94
